Test results: ChEMBL document CHEMBL4000186, “Design and synthesis of novel 2-substituted 11-keto-boswellic acid heterocyclic derivatives as anti-prostate cancer agents with Pin1 inhibition ability” (Eur J Med Chem, 2017)

What was measured:
[1] = system: PC-3; experiment: Anti-proliferative activity against human PC3 cells measured after 96 hrs by MTT assay; type: functional; conditions: PC-3, 96 h
[2] = system: LNCaP; experiment: Anti-proliferative activity against human LNCAP cells measured after 96 hrs by MTT assay; type: functional
[3] = system: PC-3; experiment: Cell cycle arrest in human PC3 cells assessed as accumulation at sub G1 phase at 1 uM after 12 hrs by propidium iodide staining based flow cytometry (reference value: 1.6 %); type: functional
[4] = system: PC-3; experiment: Cell cycle arrest in human PC3 cells assessed as accumulation at G0/G1 phase at 1 uM after 12 hrs by propidium iodide staining based flow cytometry (reference value: 65.6 %); type: functional
[5] = system: PC-3; experiment: Cell cycle arrest in human PC3 cells assessed as accumulation at G2/M phase at 1 uM after 12 hrs by propidium iodide staining based flow cytometry (reference value: 22.4 %); type: functional
[6] = system: PC-3; experiment: Cell cycle arrest in human PC3 cells assessed as accumulation at sub G1 phase at 2.5 uM after 12 hrs by propidium iodide staining based flow cytometry (reference value: 1.6 %); type: functional
[7] = system: PC-3; experiment: Cell cycle arrest in human PC3 cells assessed as accumulation at G0/G1 phase at 2.5 uM after 12 hrs by propidium iodide staining based flow cytometry (reference value: 65.6 %); type: functional
[8] = system: PC-3; experiment: Cell cycle arrest in human PC3 cells assessed as accumulation at G2/M phase at 2.5 uM after 12 hrs by propidium iodide staining based flow cytometry (reference value: 22.4 %); type: functional
[9] = system: PC-3; experiment: Cell cycle arrest in human PC3 cells assessed as accumulation at sub G1 phase at 5 uM after 12 hrs by propidium iodide staining based flow cytometry (reference value: 1.6 %); type: functional
[10] = system: PC-3; experiment: Cell cycle arrest in human PC3 cells assessed as accumulation at G0/G1 phase at 5 uM after 12 hrs by propidium iodide staining based flow cytometry (reference value: 65.6 %); type: functional
[11] = system: PC-3; experiment: Cell cycle arrest in human PC3 cells assessed as accumulation at G2/M phase at 5 uM after 12 hrs by propidium iodide staining based flow cytometry (reference value: 22.4 %); type: functional
[12] = system: PC-3; experiment: Cell cycle arrest in human PC3 cells assessed as accumulation at sub G1 phase at 1 uM after 24 hrs by propidium iodide staining based flow cytometry (reference value: 1.9 %); type: functional
[13] = system: PC-3; experiment: Cell cycle arrest in human PC3 cells assessed as accumulation at G0/G1 phase at 1 uM after 24 hrs by propidium iodide staining based flow cytometry (reference value: 63.9 %); type: functional
[14] = system: PC-3; experiment: Cell cycle arrest in human PC3 cells assessed as accumulation at G2/M phase at 1 uM after 24 hrs by propidium iodide staining based flow cytometry (reference value: 22.7 %); type: functional
[15] = system: PC-3; experiment: Cell cycle arrest in human PC3 cells assessed as accumulation at sub G1 phase at 2.5 uM after 24 hrs by propidium iodide staining based flow cytometry (reference value: 1.9 %); type: functional
[16] = system: PC-3; experiment: Cell cycle arrest in human PC3 cells assessed as accumulation at G0/G1 phase at 2.5 uM after 24 hrs by propidium iodide staining based flow cytometry (reference value: 63.9 %); type: functional
[17] = system: PC-3; experiment: Cell cycle arrest in human PC3 cells assessed as accumulation at G2/M phase at 2.5 uM after 24 hrs by propidium iodide staining based flow cytometry (reference value: 22.7 %); type: functional
[18] = system: PC-3; experiment: Cell cycle arrest in human PC3 cells assessed as accumulation at sub G1 phase at 5 uM after 24 hrs by propidium iodide staining based flow cytometry (reference value: 1.9 %); type: functional
[19] = system: PC-3; experiment: Cell cycle arrest in human PC3 cells assessed as accumulation at G0/G1 phase at 5 uM after 24 hrs by propidium iodide staining based flow cytometry (reference value: 63.9 %); type: functional
[20] = system: PC-3; experiment: Cell cycle arrest in human PC3 cells assessed as accumulation at G2/M phase at 5 uM after 24 hrs by propidium iodide staining based flow cytometry (reference value: 22.7 %); type: functional
[21] = system: PC-3; experiment: Induction of apoptosis in human PC3 cells assessed as decrease in pro-caspase 3 level measured after 24 hrs by Western blot method; type: functional, cell-based
[22] = system: PC-3; experiment: Induction of apoptosis in human PC3 cells assessed as decrease in pro-caspase 8 level measured after 24 hrs by Western blot method; type: functional, cell-based
[23] = system: PC-3; experiment: Induction of apoptosis in human PC3 cells assessed as decrease in pro-caspase 9 level measured after 24 hrs by Western blot method; type: functional, cell-based
[24] = system: PC-3; experiment: Induction of apoptosis in human PC3 cells assessed as downregulation of Mcl-1 expression measured after 24 hrs by Western blot method; type: functional, cell-based
[25] = system: PC-3; experiment: Induction of apoptosis in human PC3 cells assessed as downregulation of c-FLIP expression measured after 24 hrs by Western blot method; type: functional, cell-based
[26] = system: PC-3; experiment: Induction of apoptosis in human PC3 cells assessed as induction of NOXA expression measured after 24 hrs by Western blot method; type: functional, cell-based
[27] = biological target: T1, Peptidyl-prolyl cis-trans isomerase NIMA-interacting 1 (Homo sapiens, UniProt Q13526); experiment: Inhibition of Pin1 in human PC3 cells assessed as downregulation of cyclin D1 expression measured after 24 hrs by Western blot method; type: cell-based
[28] = biological target: T1, Peptidyl-prolyl cis-trans isomerase NIMA-interacting 1; experiment: Inhibition of Pin1 (unknown origin) using Suc-Ala-Glu-cis-Pro-Phe-4-nitroanilide as substrate preincubated for 30 mins followed by substrate addition measured for 90 secs by protease-enzyme coupled assay

T1 sequence (Q13526 whole entry): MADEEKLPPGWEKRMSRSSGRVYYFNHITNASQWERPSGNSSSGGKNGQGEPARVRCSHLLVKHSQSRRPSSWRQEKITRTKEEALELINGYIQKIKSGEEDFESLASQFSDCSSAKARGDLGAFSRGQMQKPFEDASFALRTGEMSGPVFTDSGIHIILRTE

GI50 [1]: 40 nM
GI50 [2]: 270 nM
inhibition [27]: Dose-dependent effect
IC50 [28]: 3570 nM
SMILES: C[C@H]1[C@H](C)CC[C@]2(C)CC[C@]3(C)C(=CC(=O)[C@@H]4[C@@]5(C)C=C(C#N)C(=O)[C@](C)(C(=O)N6CCNCC6)[C@@H]5CC[C@]43C)[C@H]12
Activity [3]: 2.7%
Activity [4]: 58.5%
Activity [5]: 26.1%
Activity [6]: 10.2%
Activity [7]: 52.2%
Activity [8]: 27.6%
Activity [9]: 19.5%
Activity [10]: 47.8%
Activity [11]: 22.8%
Activity [12]: 8%
Activity [13]: 45.4%
Activity [14]: 29.7%
Activity [15]: 34.6%
Activity [16]: 33.7%
Activity [17]: 22%
Activity [18]: 88.1%
Activity [19]: 3.7%
Activity [20]: 1.8%
Activity [21]: Dose-dependent effect
Activity [22]: Dose-dependent effect
Activity [23]: Dose-dependent effect
Activity [24]: Dose-dependent effect
Activity [25]: Dose-dependent effect
Activity [26]: Dose-dependent effect
